# Data published in patent US20030149005A1, “24-sulfur-substituted analogs of 1alpha, 25-dihydroxy vitamin D3” (priority 2001, published 2003).
# Key:
# [1] = Calcium excretion (hypercalcemia assay) in rats; assay type: in vivo; conditions: for urinary calcium levels: concentration 20 fold greater than the concentration of calcitriol
# Procedure: Compound I(a) was tested for its effect on calcium excretion and weight gain in rats using a protocol described in Posner et al. J. Med. Chem. 41, 3008-3014, 1998.
# [2] = biological target: T1, CYP27A1 (Homo sapiens, UniProt Q02318); test: CYP27A1 enzyme assay; assay type: biochemical
# T1 construct: fused on or other part: Possibly fused to adrenodoxin reductase and adrenodoxin, if the fusion enzyme of Dilworth et al. 1996 was used
# T1 sequence (Q02318 34-531): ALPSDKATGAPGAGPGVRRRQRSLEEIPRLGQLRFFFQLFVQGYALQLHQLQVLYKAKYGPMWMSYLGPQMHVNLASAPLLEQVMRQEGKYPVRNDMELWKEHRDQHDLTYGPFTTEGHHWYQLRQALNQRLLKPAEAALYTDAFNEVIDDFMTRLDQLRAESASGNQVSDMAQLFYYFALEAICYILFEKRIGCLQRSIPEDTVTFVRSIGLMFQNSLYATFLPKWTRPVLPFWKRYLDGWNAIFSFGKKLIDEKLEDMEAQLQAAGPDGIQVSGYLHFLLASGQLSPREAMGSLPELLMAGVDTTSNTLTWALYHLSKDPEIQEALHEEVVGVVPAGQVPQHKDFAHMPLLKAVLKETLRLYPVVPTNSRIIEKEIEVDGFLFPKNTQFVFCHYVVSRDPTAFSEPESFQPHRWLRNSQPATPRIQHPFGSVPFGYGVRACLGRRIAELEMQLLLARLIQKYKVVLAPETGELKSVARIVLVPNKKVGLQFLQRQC
# Description: Dilworth F J, Black S M, Guo Y D, Miller W L, Jones G. Construction of a P450c27 fusion enzyme: a useful tool for analysis of vitamin D3 25-hydroxylase (1996) Biochem J 320:267-271
# Sawada N, Sakaki T, Ohta M, Inouye K. Metabolism of vitamin D (3) by human CYP27A1 (2000) Biochem Biophys Res Commun 273(3):977-84
# [3] = biological target: T2, CYP27B1 (UniProt O15528); test: Assay of CYP1-alpha hydroxylase (transfected COS-1 cells); assay type: cell-based; conditions: COS-1 cells transfected with CYP-1alpha hydroxylase cDNA, [3H-26,27]-25(OH)D3 substrate
# T2 sequence (O15528 1-508): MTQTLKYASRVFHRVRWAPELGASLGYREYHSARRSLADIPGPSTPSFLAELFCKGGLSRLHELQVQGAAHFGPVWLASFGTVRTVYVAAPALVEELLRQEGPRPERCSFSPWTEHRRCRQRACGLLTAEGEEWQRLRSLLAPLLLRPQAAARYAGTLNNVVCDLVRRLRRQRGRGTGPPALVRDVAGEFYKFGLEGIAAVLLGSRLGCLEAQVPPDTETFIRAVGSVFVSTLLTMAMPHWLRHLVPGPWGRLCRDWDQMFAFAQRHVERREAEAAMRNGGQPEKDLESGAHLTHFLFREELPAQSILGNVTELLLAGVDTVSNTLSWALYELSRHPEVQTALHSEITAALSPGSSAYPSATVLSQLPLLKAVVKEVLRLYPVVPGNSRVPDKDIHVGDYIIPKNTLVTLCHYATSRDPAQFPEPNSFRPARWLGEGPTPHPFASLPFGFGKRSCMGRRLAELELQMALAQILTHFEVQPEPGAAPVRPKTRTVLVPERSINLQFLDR
# Procedure: Assay of CYP1-Alpha Hydroxylase (Using Transfected COS-1 Cells)
# 1. COS-1 cells (50-80% confluent)
# 2. FuGene 6 Transfection Reagent
# 3. PcDNA vector containing CYP-1alpha hydroxylase cDNA (1 μg/μl)
# 5. DMEM Medium (serum-free)
# (ii) Transfection Cocktail Preparation (The Amount Depends on How Many Wells Transfected)
# 1. To a sterile tube, add serum-free medium (100 μl per well), Then add FuGene 6 Reagent (3 μl per well). Tap gently to mix. Pay attention to the order.
# 2. Add DNA solution (1 μg per well) to the prediluted FuGene 6 Reagent from step 2
# 3. Gently tap the tube to mix the contents. […] Incubate for 15 min at room temperature (no more than 45 min).
# 1. Trypsinize Cos-1 cells, centrifuge cell suspension, suspend cells pellet in DMEM medium+10% FCS.
# 2. Dilute the cells suspension to 750,000 cell/ml (75 cell/square),
# 1. Add 1.7 ml DMEM medium+10 O %FCS to each well of 6 well plate.
# 2. Transfer the correct volume of the cell suspension (200 μl/well) to the transfection cocktail. Mix them gently
# 3. Add 0.3 ml of the mixture to each well. Make sure that the same amount cells are added to each well. Swirl the wells to ensure even dispersal.
# 4. Incubate the cells for 24 hours at 37° C., 5% CO2 until enzyme activity assay.
# (B) Enzyme Activity Assay
# 1. Wash cells once with PBS. Be careful, don't disturb the attached cells
# 2. Add 0.55 ml medium (DMEM+1%BSA) each well.
# 3. Add 0.025 ml medium containing test compounds
# 4. Incubate the cells for 10 minutes
# 6. Incubate the cells for 2 hour.
# 7. Add 1.5 ml Methanol to stop reaction
# 8. Add internal standard.
# 9. Transfer the medium to labeled tube.
# 10. Add 0.75 ml dichloromethane, vortex and keep in room temperature for 15 minutes.
# 11. Add 0.75 ml dichloromethane and 0.75 ml saturated KCl
# 12. Vortex and centrifuge
# 13. Remove upper phase and dry the lower phase in Speed-Vac
# 14. Add 110 μl mobile phase, vortex and centrifuge for 5 min.
# 15. Transfer 105 μl to the insert in HPLC vial.
# 16. HPLC analysis conditions:
# Solvent: Hexane/isopropanol/methanol (91/7/2)
# Detector: UV detector and radioactive detector.
# [4] = biological target: T3, CYP24 (Homo sapiens, UniProt Q07973); test: CYP24 enzyme assay (induced HPK1A-ras cells); assay type: cell-based; conditions: [3H]-1,25(OH)2D3 substrate
# T3 construct: When the HPK1A-ras cells are 80-90% confluent, add 1 μL 10^−5 M 1,25(OH)2D3 to 1 mL medium; endogenous in cells; host or cells: HPK1A-ras cells induced with 10^-8 M 1,25(OH)2D3
# T3 sequence (Q07973 36-514): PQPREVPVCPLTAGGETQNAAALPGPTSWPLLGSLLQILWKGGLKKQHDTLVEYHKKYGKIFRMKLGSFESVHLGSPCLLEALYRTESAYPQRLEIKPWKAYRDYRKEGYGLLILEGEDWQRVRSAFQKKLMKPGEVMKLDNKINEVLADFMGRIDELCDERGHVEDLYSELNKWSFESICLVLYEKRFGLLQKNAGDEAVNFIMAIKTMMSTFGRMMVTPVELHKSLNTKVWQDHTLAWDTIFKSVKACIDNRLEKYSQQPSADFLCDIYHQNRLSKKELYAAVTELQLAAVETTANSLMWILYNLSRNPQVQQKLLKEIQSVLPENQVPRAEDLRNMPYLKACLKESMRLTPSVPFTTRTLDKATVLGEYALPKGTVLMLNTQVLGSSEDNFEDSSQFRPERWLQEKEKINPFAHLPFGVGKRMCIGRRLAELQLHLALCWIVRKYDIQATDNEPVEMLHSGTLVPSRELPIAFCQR
# Procedure: CYP24 Enzyme Assay (Induced KPK1A-ras Cells)
# (i) Material and Reagents:
# Saturated KCl: KCl 30 g, H2O400 ml
# 1. Induction of HPK1A-ras cells (The day before assay)
# When the HPK1A-ras cells are 80-90% confluent, add 1 μL 10^−5 M 1,25(OH)2D3 to 1 mL medium in the plate (final concentration is 10^−8 M).
# 2. Preparation of cell suspension
# After 18 to 20 hours induction, remove the medium and wash the cell twice with PBS. Then tripsinize the cells from plate, centrifuge (2,000 rpm, 5 min) and suspend cells pellet in DMEM medium+1%BSA.
# Count the cells and adjust cells density to 250,000/150 μL, add 150 μL cell suspension to each well in 48-well plate. (including 3 well as no cell control, and 3 well cells without drug or inhibitor as control).
# 3. Add 25 μL ketoconazole (final concentration 10^−5 M, 10^−6 M, 10^−7 M, 10^−1 M) or drugs into each designated well. Keep the plate in 37° C. for 10 min.
# 4. Preparation of substrate
# Take certain amount of DMEM+1%BSA medium (25*Well number+200) μL to a tube, add certain amount of 3H-1,25(OH)2D3 (well number+2) μL and certain amount of 100 mM DPPD (well number/5) μL and mix them by vortex.
# Add 25 mL substrate to each well, incubate the plate at 37° C. for 3 hour.
# Add 25 mL substrate to counting plate (2 well) as a total count.
# 6. Lipid extraction and counting
# Add 500 μL methanol to each well to stop the reaction, transfer them to tube
# Add 250 μL dichloromethane and vortex.
# Add 250 μL dichloromethane and 250 μL saturated KCl, and vortex.
# Centrifuge at 4000 rpm for 5 min.
# Transfer 100 μL of aqueous phase (upper phase) to counting plastic counting plate. Add 600 μL of scintillation fluid to each well. Count the plate in scintillation counter.
# 7. Calculation enzyme activity
# CPM of cell control after subtraction of CPM of NCC is as 100% enzyme activity.
# Enzyme activity=(CPM in test compounds well —CPM in NCC well)/(CPM in Cell control−CPM in NCC well)*100%
SMILES,urinary calcium levels [1],urinary calcium levels ([1]; listed as Ia),IC50 [2] [nM],IC50 [3] [nM],IC50 [4] [nM],calcemic activity ([1]; calcium excretion protocol)
C=C1/C(=C\C=C2/CCC[C@]3(C)[C@@H]([C@H](C)CCS(=O)(=O)c4ccccc4)CC[C@@H]23)C[C@@H](O)C[C@@H]1O [I(a)],did not show an increase in urinary calcium levels,did not increase the levels of calcium in the urine,> 10000,> 10000,,
C=C1/C(=C\C=C2/CCC[C@]3(C)[C@@H]([C@H](C)CCS(=O)(=O)c4ccc(Cl)cc4)CC[C@@H]23)C[C@@H](O)C[C@@H]1O [I(e)],,,,> 1000,94,
C=C1/C(=C\C=C2/CCC[C@]3(C)[C@@H]([C@H](C)CCS(=O)(=O)c4ccc(C)cc4)CC[C@@H]23)C[C@@H](O)C[C@@H]1O [I(g)],,,,> 1000,212,
C=C1/C(=C\C=C2/CCC[C@]3(C)C([C@H](C)CCSC(C)(C)C)=CC[C@@H]23)C[C@@H](O)C[C@@H]1O [I(gg)],,,,8460,467,
C=C1/C(=C\C=C2/CCC[C@]3(C)[C@@H]([C@H](C)CCS(=O)(=O)c4ccc(Cl)c(Cl)c4)CC[C@@H]23)C[C@@H](O)C[C@@H]1O [I(i)],,,,> 1000,92,
C[C@H](CCS(=O)(=O)c1ccccc1)[C@H]1CC[C@H]2/C(=C/C=C3C[C@@H](O)C[C@H](O)C3)CCC[C@]12C [I(u)],,,,,160,strongly non-calcemic
C=C1/C(=C\C=C2/CCC[C@]3(C)[C@@H]([C@H](C)CCS(=O)(=O)C(C)(C)C)CC[C@@H]23)C[C@@H](O)C[C@@H]1O [I(v)],,,,> 10000,219,
C=C1/C(=C\C=C2/CCC[C@]3(C)[C@@H]([C@H](C)CCS(=O)(=O)C(C)C)CC[C@@H]23)C[C@@H](O)C[C@@H]1O [I(w)],,,,9200,90,
